Laboratory results reported in patent publication US12247022B2, “Combinations for treatment of NASH/NAFLD and related diseases” (Pfizer Inc., priority 2018, dated 2025).
Structures can show the parent of a compound that is named as a salt.

Test: Thermodynamic stability of crystalline form versus water activity
Type: physicochemical
Settings: ambient temperature; about 0.2 (20% RH)

water activity at which the form is thermodynamically stable | Structure (SMILES)
< 0.2 | COc1cc(C(=O)N2CCC3(CC2)CC(=O)c2c(cnn2C(C)C)C3)cc(-c2ccc(C(=O)O)cc2)n1 [Form 1 of Compound A, 4-(4-(1-isopropyl-7-oxo-1,4,6,7-tetrahydrospiro[indazole-5,4′-piperidine]-1′-carbonyl)-6-methoxypyridin-2-yl)benzoic acid anhydrous tris salt]
> 0.2 | COc1cc(C(=O)N2CCC3(CC2)CC(=O)c2c(cnn2C(C)C)C3)cc(-c2ccc(C(=O)O)cc2)n1 [Form 2 of Compound A]
